From patent US20190373892A1, “FORMALDEHYDE-FREE PRESERVATIVES FOR HIGHLY SUSCEPTIBLE PRODUCTS” (Troy Corporation, priority 2018, published 2019) come the findings set out here.

In brackets after ≈: the same amount, converted by molar mass.

Assay [1] concerns Pseudomonas aeruginosa (ATCC #10145). Put plainly: Minimum Inhibitory Concentration (MIC) testing by microbroth dilution. The format is cell-based. As to conditions: ATCC10145, 72 h, 1x Nutrient Broth, 35° C., 3 days, no growth via turbidity. On the technique in general: Dilution methods test growth across graded concentrations, often in twofold steps.
Assay [2] has as its system Alcaligenes faecalis (ATCC #25094), Enterobacter aerogenes (ATCC #13048), Escherichia coli (ATCC #11229), Pseudomonas aeruginosa (ATCC #10145) and Pseudomonas …. Put plainly: Bacterial challenge test in laboratory-made wallboard joint compound. The assay is classed as cell-based. As to conditions: 200 ppm total active.
Source text: Because this bacterial challenge test is intended to test the performance of in-can preservatives during long-term storage, only the last day of each seven-day challenge is considered important. The test sample was inoculated with bacteria on the first day of each seven-day challenge.
Bacteria were inoculated into the laboratory-made test wallboard joint formulations at approximately 10^6 CFU/g at time equals zero on the first day of each seven-day cycle. Viability of the bacteria was monitored semi-quantitatively through streak analysis 1, 2, and 7 days after inoculation. This procedure was performed twice for a total of two to four seven-day cycles. A rating of “4” indicates heavy growth, while a rating of “0” indicates undetectable growth, defined as <10 CFU/g of material. Samples free of detectable growth after 7 days are considered to be well-preserved.
For comparison, a blank, unpreserved laboratory-made wallboard joint composition is shown, as well as a laboratory-made wallboard joint composition that is preserved with a commercial formaldehyde-producing preservative, comprising 78 wt % of 2,2′,2″-(hexahydro-1,3,5-triazine-1,3,5-triyl)-triethanol (HHT). The various preservatives were added to the laboratory-made wallboard joint compound at the levels shown, in ppm by weight.

By MIC is commonly meant the smallest concentration in the dilution series that meets the test's criterion for growth inhibition. For `O=c1[nH]sc2ccccc12` [BIT, 1,2-benzisothiazol-3(2H)-one], in assay [1], the MIC was found to be 30.8 µg/mL (≈ 204 µM). For the same molecule, the “Protection of wallboard joint compound in words” value in assay [2] is reported as “neither 200 ppm BIT nor Ziram alone being capable of protecting the wallboard joint compound”.
